Among the data in ChEMBL document CHEMBL1142152, “Inhibition of anthrax protective antigen outside and inside the cell” (Antimicrob Agents Chemother, 2007) are Activity and IC50 values, retold here.

SMILES strings stand for the structures. Active and inactive are the calls of the source. The rule behind the calls is not given here.

Holding throughout (format): functional, cell-based
One experiment concerns KDR. Kind of experiment: Protection of SLT-VEGF induced toxicity in 293/KDR cells. Conditions: Homo sapiens.
In experiment [1] the test system is CHO. Kind of experiment: Inhibition of PA-induced apoptosis in CHO cells expressing TEM8 receptor cells at 5 uM after 24 hrs. The settings on record: Cricetulus griseus.
A further experiment is filed under the species Mus musculus. Put plainly: Cell viability in mouse RAW264.7 cells by LeTx protection assay.
The subject of experiment [2] is CHO. Kind of experiment: Inhibition of LFn-Lip uptake in CHO cells expressing TEM8 receptor at 100 uM after 1 hrs. The settings on record: Cricetulus griseus.
Experiment [3] relates to CHO. Put plainly: Inhibition of LFn-A1 uptake in CHO cells expressing TEM8 receptor at 100 uM. Conditions: Cricetulus griseus.
The test system of experiment [4] is CHO. Put plainly: Blockade of PA-induced toxicity in CHO cells expressing TEM8 assessed as cell viability at 5 uM after 48 hrs. Conditions: Cricetulus griseus.

On to `NCCCSC[C@H]1O[C@@H]2O[C@H]3[C@H](O)[C@@H](O[C@H]4[C@H](O)[C@@H](O)[C@@H](O[C@H]5[C@H](O)[C@@H](O)[C@@H](O[C@H]6[C@H](O)[C@@H](O)[C@@H](O[C@H]7[C@H](O)[C@@H](O)[C@@H](O[C@H]8[C@H](O)[C@@H](O)[C@@H](OC1[C@H](O)[C@H]2O)O[C@@H]8CSCCCN)O[C@@H]7CSCCCN)O[C@@H]6CSCCCN)O[C@@H]5CSCCCN)O[C@@H]4CSCCCN)[C@@H](O)O[C@@H]3CSCCCN`, for which the outcome with KDR and in the experiment with CHO [2] was inactive. The result with CHO [1], in the experiment on CHO [3] and with CHO [4] was Active. Besides, the concentration for half-maximal inhibition (IC50) in the experiment filed under Mus musculus is 7 µM.

By IC50 is commonly meant the concentration at which inhibition is half-maximal. Lower therefore signals greater potency in that assay.
